pIC50: −log10 of the molar value. Entries after “also recorded” stand apart in the source; their conditions may differ. Like-named read-outs stand apart in the source and are kept apart here.
Columns and labels:
human α-synuclein = assay: Masliah D-line α-synuclein transgenic mouse, α-synuclein immunoreactivity and ELISA; type: in vivo
Experimental: Animals and treatments: Male and female human WT alpha-synuclein over-expressing transgenic mice^32 at 6 months of age were given vehicle (10% beta-cyclodextrin) or LNK-754-TS (0.09, 0.9 and 9 mg/kg) per oral gavage twice daily for 3 months or animals at 7 months of age were given vehicle (2.5% beta-cyclodextrin) or LNK-754-TS (2 mg/kg) once every three days for 3 months. Male and female TAU transgenic mice expressing TAU441 bearing the missense mutations V337M^50 and R406W under the control of the murine Thy-1 promoter with a CB6xC57BL/6 background were 5 months old at the time when the oral treatment for three months with LNK-754-TS (0.9 and 0.09 mg/kg) as well as vehicle (2.5% beta-cyclodextrin) was started. Female human APP/PS1 (APP (London V7171)/PS1(A246E)) over-expressing transgenic mice were treated with LNK-754-TS (0.9 mg/kg) or vehicle (2.5% beta-cyclodextrin) for 2 months or 12 days.
Immunohistochemistry and quantification of stained cells: For evaluation of α-synuclein immunoreactivity (IR), 5 sagittal cryo-cut sections (10 μm slice thickness) from five different layers were used for counting of IR cells in the cortex and hippocampus. Brain sections were stained with a monoclonal human α-synuclein specific antibody (Alexis®; Cat#804-258-L001; dilution 1:5), followed by a secondary Ab Cy 2-Goat Anti-Rat (Jackson ImmunoResearch®; dilution 1:200). IR positive cells were quantified using specialized image analysis software (Image Pro Plus, version 4.5.1.29). For Tau transgenic animals, 5 μm thick coronal paraffin sections were stained with the monoclonal mouse anti-human TAU-antibodies (AT180—1:100; HT7—1:500) and visualized using an anti-mouse Cy3 secondary antibody (1:500, Jackson Laboratories®). Images were evaluated with ImageProPlus (version 6.2) image analysis software. For APP/PS1 transgenic animals sagittal hemisections (40 μm) were collected and processed for Aβ immunohistochemistry using an 6E10 antibody, Thioflavin-S staining. Primary antibodies were detected by the ABC method.
ELISA quantification of α-Synuclein in the α-Synuclein transgenic animals: Brain homogenate was centrifuged and the supernatant saved as fraction F1. The pellet was washed then resuspended and saved as fraction F2. Plates (Nunc, 464718) were coated with SYN-1 (1:1000, BD Transduction Labs, 610787). Monomeric recombinant α-synuclein was included as an internal standard. Biotinylated antibody FL-140 (1:300, Santa Cruz Biotechnology, sc-10717-B) and ExtrAvidin-Alkaline phosphatase (3:5000, Sigma, E2636) was added followed by pNPP substrate solution (Sigma, N1891). Raw absorbance (405 nm) was then normalized to the total protein concentration of each sample. In the APP/PS1 transgenic animal, brains were homogenized and the supernatant, Faction 1, was separated from the pellet. The pellets were further processed with addition of NP40 and Triton X-100. The supernatant was separated from the pellet as the insoluble membrane, Fraction 2, and was dissolved in 8M Guanidine. To quantify the amount of human Aβ-40 and Aβ-42, ELISA kits were used (The Genetics Company, Zurich, Switzerland).
In FIG. 2 is shown efficacy data for LNK-754-TS in the Masliah D-line transgenic α-synuclein mouse (an accepted model of synucleinopathies). Two trials are shown, the first (FIG. 2A) at higher doses of LNK-754-TS: 45 mg/kg and 9 mg/kg. […] The second trial (FIG. 2B) explores the low dose range for efficacy in the α-synuclein models. Here, doses start as low as 0.9 mg/kg, and extend through 9 mg/kg, all below the efficacious dose range in the mouse oncology model.
After dosing with LNK-754-TS for three months (twice daily at 0.09 mg/kg or 0.9 mg/kg), α-synuclein accumulation in the brain was analyzed by immunohistochemical (human specific α-synuclein immunoreactivity) and biochemical (α-synuclein ELISA) means. […]

LC3-II protein = LC3-II protein level in SH-SY5Y cells with or without bafilomycin A1; type: cell-based, human
Experimental: The observed increase in LC3-positive autophagosomes could result, in principle, from either an increased flux through the autophagy pathway or decreased autophagosome degradation (Pankiv, S., et al. J Biol Chem 282, 24131-24145 (2007); Kamada, Y., et al. J Cell Biol 150, 1507-1513 (2000)). […] In order to ascertain an increase in autophagic flux, cells were co-treated with LNK-754-TS and an inhibitor of autophagosome-lysosome fusion, bafilomycin A1 (10 nM). Bafilomycin treatment alone caused a 100% increase in the amount of LC3-II, consistent with the fact that it inhibits autophagosome degradation (FIG. 8c).

Ras = assay: Soluble/cytoplasmic Ras level in frontal cortex of alpha-synuclein transgenic mice; type: in vivo, mouse; settings: 0.09 mg/kg or 9 mg/kg b.i.d. 3 months vs vehicle
Experimental: The level of inhibition of Ras in brain by LNK-754-TS, dosed at an efficacious dose for efficacy in animal models of proteinopathy-dependent neurodegeneration, was investigated. Alpha-synuclein transgenic mice were treated for 3 months b.i.d. with vehicle or LNK-754-TS at 0.09 mg/kg or 9 mg/kg. Cortical tissue was extracted and homogenized, followed by isolation of soluble/cytosolic proteins in detergent-free buffer (50 mM Tris-HCl pH 7.4, 140 mM NaCl, 2 mM EDTA, Protease inhibitor cocktail) by centrifugation. 15 micrograms of protein lysate was analyzed per lane of SDS-PAGE gel, and immunoblotted for Ras and actin (FIG. 6). Densitometry was used to quantify the Ras/actin ratio for each sample, and results were plotted (FIG. 7). […] This contrasts with what is observed in xenograft cancer models, where inhibition of Ras farnesylation by high dose FTIs is directly correlated with efficacy (FIG. 3 and Example 3).

GGTase [1] = target: T1, GGTase (Homo sapiens, UniProt P49354+P53609); assay: GGTase inhibitory activity, general statement; type: biochemical; settings: selective FTase inhibitors
isolated islets / INS1 = assay: Oxygen consumption, Seahorse XF24 bioenergetic assay; type: cell-based; settings: 1 nM
Experimental: Impaired mitochondrial function is shown by a decreased rate of oxygen consumption. […] The effect of LNK-754 at 1 nM and 10 nM doses on oxygen consumption was determined. Oxygen consumption in INS1 was measured using a Seahorse XF24 bioenergetic assay. Assays have been previously described in detail (See, Wu M, et al. Am J Physiol Cell Physiol 2007; 292:C125-36).

GGTase [2] = target: T1, GGTase; assay: Table 5A in vitro GGTI (H-Ras, K-Ras CAAX mutant); type: biochemical
Source text: The selectivity of LNK-754 for FTase over GGTAse is shown below in Table 5A.

[3] = 9 mg/kg PO BID 3 months, first trial (FIG. 2A)
[4] = 45 mg/kg PO BID 3 months (FIG. 2A)
[5] = 0.09 or 0.9 mg/kg twice daily, three months
[6] = α-synuclein transgenic mice vs vehicle

SMILES	α-synuclein accumulation in brain (immunoreactivity and ELISA) (human α-synuclein; 0.09 mg/kg or 0.9 mg/kg twice daily, three months, cortex and hippocampus)	cortical α-synuclein immunoreactivity (human α-synuclein; 2 mg/kg once every 72 hours, three months, vs baseline and vehicle)	number of α-synuclein positive neurons (human α-synuclein; [3])	number of α-synuclein IR cells in hippocampus (human α-synuclein; 9 mg/kg PO BID 3 months, second lower dose trial (FIG. 2B))	number of α-synuclein positive neurons (human α-synuclein; [4])	astrocytosis (GFAP staining) (human α-synuclein; [5])	drug-dependent toxicity (human α-synuclein; [5])	neuronal loss (NeuN staining and brain volume) (human α-synuclein; [5])	synaptic damage (synaptophysin staining) (human α-synuclein; [5])	reduction of α-synuclein immunoreactivity, hippocampal slices (human α-synuclein; three-month dosing trial (FIG. 9c))	additional increase in LC3-II over bafilomycin alone (LC3-II protein; 100 nM in combination with bafilomycin A1 10 nM) [%]	accumulation of LC3-I or LC3-II protein (LC3-II protein; compound alone, without bafilomycin)	soluble Ras/actin level in cortex (Ras)	GGTase inhibitory activity (GGTase [1])	number of α-synuclein positive neurons (human α-synuclein; 0.9 mg/kg, second trial (FIG. 2B))	levels of α-synuclein in the hippocampus (human α-synuclein; [6])	α-synuclein inclusions (human α-synuclein; [6])	oxygen consumption (OCR) (isolated islets / INS1)	pIC50 (GGTase [2]; read-out: H-Ras CAAX Mutant GGTI)	pIC50 (GGTase [2]; read-out: K-Ras CAAX Mutant GGTI)
C#Cc1cccc(-c2cc(=O)n(C)c3ccc([C@](O)(c4ccc(Cl)cc4)c4cncn4C)cc23)c1 [LNK-754-TS, (R)-6-[(4-chlorophenyl)-hydroxyl-(1-methyl-1-H-imidazol-5-yl)-methyl]-4-(3-ethynylphenyl)-1-methyl-2-(1H)-quinonlinone (2S, 3S)-dihydroxybutanedioate]	clearly reduced; also recorded: halts deposition	significantly lower than at the outset of treatment; also recorded: significantly reduces	significant reduction	significance level was not reached	not significantly effective	GFAP staining was unchanged	None of the treated animals showed any evidence	no evidence of neuronal loss	synaptophysin staining was unchanged	ca. 50%	75	did not cause accumulation	No significant differences							
C#Cc1cccc(-c2cc(=O)n(C)c3ccc([C@](O)(c4ccc(Cl)cc4)c4cncn4C)cc23)c1 [LNK-754, (R)-6-[(4-chlorophenyl)-hydroxyl-(1-methyl-1-H-imidazol-5-yl)-methyl]-4-(3-ethynylphenyl)-1-methyl-2-(1H)-quinonlinone]			found to significantly lower		did not significantly lower; also recorded: not found to significantly lower									little to no GGTase inhibitory activity	significantly lowered	decrease levels of α-synuclein	fewer α-synuclein inclusions	increases oxygen consumption	6.26	5.54
